Measurements published in ChEMBL document CHEMBL5252552, “Defined concatenated α6α1β3γ2 GABAA receptor constructs reveal dual action of pyrazoloquinolinone allosteric modulators” (Bioorg Med Chem, 2019).

Assays:
[1] = biological target: Gamma-aminobutyric acid receptor subunit alpha-1/beta-3/gamma-2 (Rattus norvegicus) (UniProt P18508+P62813+P63079); experiment: Positive allosteric modulation of rat recombinant GABAA alpha1beta3alpha1-gamma2beta3 receptor expressed in Xenopus laevis oocytes assessed as maximal efficacy at -80 mV holding potential at 30 uM in presence of GABA EC1 to 1.5 by two-electrode voltage-clamp assay; type: cell-based; settings: Oocyte, filed as positive allosteric modulator
[2] = biological target: Gamma-aminobutyric acid receptor subunit alpha-1/alpha-6/beta-3/gamma-2 (Rattus norvegicus) (UniProt P18508+P30191+P62813+P63079); experiment: Positive allosteric modulation of rat recombinant GABAA gamma2beta3alpha1-beta3alpha6 receptor expressed in Xenopus laevis oocytes assessed as maximal efficacy at -80 mV holding potential at 1 nM in presence of GABA EC1 to 1.5 by two-electrode voltage-clamp assay; type: cell-based; settings: Oocyte

What does the source list for `COc1ccc(-n2nc3c4ccc(Br)cc4[nH]cc-3c2=O)cc1`?
Efficacy [1]: 242%; Efficacy [2]: 3%
